Measurements: patent US20180344715A1, “WNT/BETA-CATENIN SIGNAL TRANSDUCTION INHIBITORS AND THEIR USE IN TREATMENT OR PREVENTION OF DISEASES AND CONDITIONS LINKED WITH SAID TRANSDUCTION” (BERGEN TEKNOLOGIOVERFORING AS, priority 2015, published 2018)

Tested on: Wnt/β-catenin signaling
Assay: TOPFlash reporter assay in 293FT cells
Type: cell-based, human
Settings: 1 μM 6BIO together with drug at indicated concentrations, 24 hours
Method: TOPFlash assay was performed in 96-well plate. For each well, 293T cells were transfected with 0.22 μg TOPFlash (or FOPFlash with mutant TCF binding sites) and 0.02 μg pRL-SV40P using lipofectamine 3000. For co-transfection with other plasmids, 0.1 μg additional DNA was used. […] The luciferase activity was measured 24 hours later by using Dual-Glo® Luciferase Assay System (Promega, E2940) according to the recommended protocol. The TOPFlash or FOPFlash activity was normalized to Renilla luciferase signals.
TOPFlash assay was performed as described above. Briefly, for each well of a 96-well plate 293FT cells were transfected with 0.22 μg TOPFlash (or FOPFlash with mutant TCF binding sites) and 0.02 μg pRL-SV40P using lipofectamine 3000. For co-transfection with other plasmids, 0.1 μg additional DNA was used. Four hours after transfection, 293FT cells were treated with DMSO, 1 μM 6B10 and 1 μM 6B10 together with pazopanib, orlistat and topotecan at varying concentrations for 24 hours. The luciferase activity was then measured using Dual-Glo® Luciferase Assay System (Promega, E2940) according to the recommended protocol. The TOPFlash or FOPFlash activity was normalized to Renilla luciferase signals.

| SMILES | TOPFlash activity normalized to Renilla luciferase activity |
| --- | --- |
| CC[C@@]1(O)C(=O)OCc2c1cc1n(c2=O)Cc2cc3c(CN(C)C)c(O)ccc3nc2-1.Cl [topotecan, (S)-10-[(dimethylamino)methyl]-4-ethyl-4,9-dihydroxy-1H-pyrano[3′,4′:6,7]indolizino[1,2-b]quinoline-3,14(4H,12H)-dione monohydrochloride] | Wnt signaling inhibition |
| CCCCCCCCCCC[C@@H](C[C@@H]1OC(=O)[C@H]1CCCCCC)OC(=O)[C@H](CC(C)C)NC=O [orlistat, (S)-((S)-1-((2S,3S)-3-Hexyl-4-oxooxetan-2-yl)tridecan-2-yl) 2-formamido-4-methylpentanoate] | Wnt signaling inhibition |
